Format in all cases: in vivo
The subject of test [1] is Mycosphaerella graminicola; Anamorph: Septoria tritici. In words: Leaf Blotch of Wheat (SEPTTR) disease control. The settings on record: Zymoseptoria tritici; for pest or weed control at 100 ppm: rate 100 ppm; for pest or weed control at 121.5 g/ha: rate 121.5 g/H. The method in brief: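 Seedlings of variety Yuma grew until the first leaf fully emerged. Fungicide solution (acetone/water with Triton X-100) was sprayed to run-off; plants were inoculated with S. tritici spores before or after spraying, held one day dark and two to three days lit at 100% humidity, then kept at 20° C.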

For test [2], the system named is Puccinia triticina; Synonym: Puccinia recondite f. Sp. Tritici. Put plainly: Wheat Brown Rust (PUCCRT) disease control. The settings on record: Puccinia triticina, topical; for pest or weed control at 100 ppm: rate 100 ppm; for pest or weed control at 121.5 g/ha: rate 121.5 g/H. The procedure, abridged:
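Brown rust on first-leaf Yuma wheat: spore inoculation before or after spray application (acetone/Triton X-100 solution, or EC with Trycol in track spray), overnight 100% RH at 22 °C, disease developed at 24 °C. Severity scored 0–100% and converted to percent control against untreated.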

Another test deals with Erysiphe cichoracearum. In words: Powdery Mildew of Cucumber (ERYSCI) disease control. The settings on record: Golovinomyces cichoracearum, topical, 24 h, 1 Day Protectant, read-out: Disease Control ERYSCI 1 DP. The method in brief:
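Cucumber seedlings aged 12–14 days were sprayed to run-off with compound in acetone/water containing 110 ppm Triton X-100, then inoculated with spore suspension 24 h later. Plants were held at 20 °C until disease was fully expressed. Disease control was derived from percent severity on treated versus untreated leaves.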

Another test deals with Alternaria solani. In words: Tomato Early Blight (ALTESO) disease control. The following applies: Alternaria solani, topical, 24 h, 1 Day Protectant, read-out: Disease Control ALTESO 1 DP. The method in brief: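 Acetone solutions diluted in nine volumes of water with 110 ppm Triton X-100, sprayed to run-off on 12–14-day-old tomato plants (Outdoor girl). Alternaria solani spores applied 24 h after treatment, then 100% RH dew chambers at 20° C. and a 22° C. growth room. Percent control from disease severity (0–100%) relative to untreated plants.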

Setting [3] is: 24 h, 1 Day Protectant, read-out: SEPTTR 1 DP disease control.
The mark [4] stands for this setting: 72 h, 3 Day Curative, read-out: SEPTTR 3 DC disease control.
The mark [5] stands for this setting: 24 h, 1 Day Protectant, read-out: PUCCRT 1 DP disease control.
Where [6] appears, read: 72 h, 3 Day Curative, read-out: PUCCRT 3 DC disease control.

Where two headings read alike, the source gives them in different places.

For the compound `CCCO[C@@H]1[C@@H](Cc2ccc(F)cc2)CCC[C@H](NC(=O)c2nccc(OC)c2OCOC(=O)COCC)C(=O)O[C@H]1C` [Compound F167], the pest or weed control at 100 ppm (in test [1] (setting [3]); in test [1] (setting [4]); in test [2] (setting [5]); in test [2] (setting [6]); with Erysiphe cichoracearum; with Alternaria solani) was 80 to 100% each time. Moreover, the pest or weed control at 121.5 g/ha in test [1] (setting [3]), in test [1] (setting [4]), in test [2] (setting [5]) and in test [2] (setting [6]) was 80 to 100% each time.

`CCOCC(=O)OCOc1c(OC)ccnc1C(=O)N[C@H]1CCC[C@H](CCOC)[C@@H](Oc2ccccc2)[C@H](C)OC1=O` [Compound F183]: the pest or weed control at 100 ppm lay in the range of 80 to 100% in test [1] (setting [3]); 80 to 100% in test [1] (setting [4]); 80 to 100% in test [2] (setting [5]); 80 to 100% in test [2] (setting [6]); 0 to 80% in the test with Erysiphe cichoracearum; 0 to 80% in the test on Alternaria solani. Moreover, the pest or weed control at 121.5 g/ha in test [1] (setting [3]), in test [1] (setting [4]), in test [2] (setting [5]) and in test [2] (setting [6]) was 80 to 100% in each case.

With `CCCO[C@@H]1[C@@H](CCC(C)C)CCC[C@H](NC(=O)c2nccc(OC)c2OCOC(C)=O)C(=O)O[C@H]1C` [Compound F92], the pest or weed control at 100 ppm (in test [1] (setting [3]); in test [1] (setting [4]); in test [2] (setting [5]); in test [2] (setting [6]); in the test with Erysiphe cichoracearum; in the test with Alternaria solani) was 80 to 100% throughout. The pest or weed control at 121.5 g/ha in test [1] (setting [3]), in test [1] (setting [4]), in test [2] (setting [5]) and in test [2] (setting [6]) was 80 to 100% throughout.

Turning to `COc1ccnc(C(=O)N[C@H]2CCC[C@H](Cc3ccccc3)[C@@H](OCC(C)C)[C@H](C)OC2=O)c1OCOC(C)=O` [Compound F106], the pest or weed control at 100 ppm (in test [1] (setting [3]); in test [1] (setting [4]); in test [2] (setting [5]); in test [2] (setting [6]); in the test with Erysiphe cichoracearum; in the test on Alternaria solani) was 80 to 100% each time. The pest or weed control at 121.5 g/ha in test [1] (setting [3]), in test [1] (setting [4]), in test [2] (setting [5]) and in test [2] (setting [6]) was 80 to 100% in each case.
